Patent US20080014186A1, “Hla-A24 or Hla-A2 Binding Peptides of Parathyroid Hormone-Related Protein” (GREEN PEPTIDE CO., LTD., priority 2004, published 2008)

Legend:
[1] = tested on: IgG in plasma of HLA-A2^+ healthy donors and prostate cancer patients; assay: Peptide-specific IgG in plasma by ELISA (HLA-A2-binding PTHrP peptides); parameters: species or system human; details: for IgG reactive to the peptide in plasma (difference of OD): 1:100-diluted plasma
Experimental: Peptide-specific IgG levels in the plasma were measured by ELISA, as previously reported. In brief, peptide (20 μg/well)-immobilized plates were blocked with Block Ace (Yukijirushi, Tokyo, Japan) and washed with 0.05% Tween20-PBS, after which 100 μl/well of plasma sample diluted with 0.05% Tween20-Block Ace was added to the plate. After 2 hours incubation at 37° C., the plates were washed and further incubated for 2 hours with a 1:1000-diluted rabbit anti-human IgG (γ-chain-specific) (DAKO, Glostrup, Denmark). The plates were washed, and then 100 μl of 1:100-diluted goat anti-rabbit IgG-conjugated horseradish peroxidase (EnVision, DAKO) was added to each well, and the plates were then incubated at room temperature for 40 min. After the plates were washed once, 100 μl/well of tetramethyl benzidine substrate solution (KPL, Guildford, UK) was added, and the reaction was stopped by the addition of 1 M phosphoric acid. The values are shown as optical density (OD) units/ml, and responses to the HIV peptide were subtracted. IgG reactive to a corresponding PTHrP peptide was judged to be positive when the difference of the OD in 1:100-diluted plasma exceeded 0.05. The results that IgG reactive to either the PTHrP102-111 or the […] peptide was detected in 8 of 10 healthy donors and in 7 of 10 prostate cancers are shown in Table 2 hereinafter.
In a similar way to Example 3, it was examined whether IgGs reactive to peptides of PTHrP 42-51 and PTHrP 59-67 could be detected in the plasma of 10 healthy donors and 10 cancer patients. The cut-off value at 1:100-diluted plasma was ODO.054.

[2] = tested on: PBMCs of HLA-A2^+ healthy donors and prostate cancer patients; assay: Assay for peptide-specific CTLs in PBMCs (IFN-γ ELISA, peptide-pulsed T2 cells); assay type: cell-based, human; details: for INF-γ production: T2 cells

- IgG reactive to the peptide in plasma (difference of OD) ([1]; HLA-A2^+ healthy donor #1): 0.0745 OD
- IgG reactive to the peptide in plasma (difference of OD) ([1]; HLA-A2^+ healthy donor #2): 0.092 OD
- IgG reactive to the peptide in plasma (difference of OD) ([1]; HLA-A2^+ healthy donor #4): 0.128 OD
- IgG reactive to the peptide in plasma (difference of OD) ([1]; HLA-A2^+ healthy donor #5): 0.0575 OD
- IgG reactive to the peptide in plasma (difference of OD) ([1]; HLA-A2^+ healthy donor #8): 0.0585 OD
- Total (IgG-positive donors / donors tested) ([1]; HLA-A2^+ healthy donors): 5/10
- IgG reactive to the peptide in plasma (difference of OD) ([1]; HLA-A2^+ prostate cancer patient #7): 0.0655 OD
- IgG reactive to the peptide in plasma (difference of OD) ([1]; HLA-A2^+ prostate cancer patient #10): 0.112 OD
- Total (IgG-positive patients / patients tested) ([1]; HLA-A2^+ prostate cancer patients): 2/10
Sequence: YLTQETNKV [PTHrP 103-111]
- IgG reactive to the peptide in plasma (difference of OD) ([1]; HLA-A2^+ healthy donor #3): — (IgG reactive to a corresponding peptide was judged to be positive when a difference of OD in a 1:100-diluted plasma was more than 0.054.)
- IgG reactive to the peptide in plasma (difference of OD) ([1]; HLA-A2^+ healthy donor #6): — (IgG reactive to a corresponding peptide was judged to be positive when a difference of OD in a 1:100-diluted plasma was more than 0.054.)
- IgG reactive to the peptide in plasma (difference of OD) ([1]; HLA-A2^+ healthy donor #7): — (IgG reactive to a corresponding peptide was judged to be positive when a difference of OD in a 1:100-diluted plasma was more than 0.054.)
- IgG reactive to the peptide in plasma (difference of OD) ([1]; HLA-A2^+ healthy donor #9): — (IgG reactive to a corresponding peptide was judged to be positive when a difference of OD in a 1:100-diluted plasma was more than 0.054.)
- IgG reactive to the peptide in plasma (difference of OD) ([1]; HLA-A2^+ healthy donor #10): — (IgG reactive to a corresponding peptide was judged to be positive when a difference of OD in a 1:100-diluted plasma was more than 0.054.)
- IgG reactive to the peptide in plasma (difference of OD) ([1]; HLA-A2^+ prostate cancer patient #1): — (IgG reactive to a corresponding peptide was judged to be positive when a difference of OD in a 1:100-diluted plasma was more than 0.054.)
- IgG reactive to the peptide in plasma (difference of OD) ([1]; HLA-A2^+ prostate cancer patient #2): — (IgG reactive to a corresponding peptide was judged to be positive when a difference of OD in a 1:100-diluted plasma was more than 0.054.)
- IgG reactive to the peptide in plasma (difference of OD) ([1]; HLA-A2^+ prostate cancer patient #3): — (IgG reactive to a corresponding peptide was judged to be positive when a difference of OD in a 1:100-diluted plasma was more than 0.054.)
- IgG reactive to the peptide in plasma (difference of OD) ([1]; HLA-A2^+ prostate cancer patient #4): — (IgG reactive to a corresponding peptide was judged to be positive when a difference of OD in a 1:100-diluted plasma was more than 0.054.)
- IgG reactive to the peptide in plasma (difference of OD) ([1]; HLA-A2^+ prostate cancer patient #5): — (IgG reactive to a corresponding peptide was judged to be positive when a difference of OD in a 1:100-diluted plasma was more than 0.054.)
- IgG reactive to the peptide in plasma (difference of OD) ([1]; HLA-A2^+ prostate cancer patient #6): — (IgG reactive to a corresponding peptide was judged to be positive when a difference of OD in a 1:100-diluted plasma was more than 0.054.)
- IgG reactive to the peptide in plasma (difference of OD) ([1]; HLA-A2^+ prostate cancer patient #8): — (IgG reactive to a corresponding peptide was judged to be positive when a difference of OD in a 1:100-diluted plasma was more than 0.054.)
- IgG reactive to the peptide in plasma (difference of OD) ([1]; HLA-A2^+ prostate cancer patient #9): — (IgG reactive to a corresponding peptide was judged to be positive when a difference of OD in a 1:100-diluted plasma was more than 0.054.)
- INF-γ production ([2]; HLA-A2^+ healthy donor #1 (A0201)): 34 pg/mL
- INF-γ production ([2]; HLA-A2^+ healthy donor #2 (A0201)): 217 pg/mL
- INF-γ production ([2]; HLA-A2^+ healthy donor #3 (A0201)): 9 pg/mL
- INF-γ production ([2]; HLA-A2^+ healthy donor #4 (A0201)): 0 pg/mL
- INF-γ production ([2]; HLA-A2^+ healthy donor #5 (A0206)): 0 pg/mL
- INF-γ production ([2]; HLA-A2^+ healthy donor #6 (A0206)): 0 pg/mL
- INF-γ production ([2]; HLA-A2^+ healthy donor #7 (A0206)): 0 pg/mL
- INF-γ production ([2]; HLA-A2^+ healthy donor #8 (A0206)): 0 pg/mL
- INF-γ production ([2]; HLA-A2^+ healthy donor #9 (A0206)): 0 pg/mL
- INF-γ production ([2]; HLA-A2^+ healthy donor #10 (A0207)): 0 pg/mL
- Total (donors with significant peptide-specific IFN-γ production / donors tested) ([2]; HLA-A2^+ healthy donors, p < 0.05): 1/10
- INF-γ production ([2]; HLA-A2^+ prostate cancer patient #1 (A0206)): 144 pg/mL
- INF-γ production ([2]; HLA-A2^+ prostate cancer patient #2 (A0210)): 41 pg/mL
- INF-γ production ([2]; HLA-A2^+ prostate cancer patient #3 (A0210)): 57 pg/mL
- INF-γ production ([2]; HLA-A2^+ prostate cancer patient #4 (A0206)): 86 pg/mL
- INF-γ production ([2]; HLA-A2^+ prostate cancer patient #5 (A0206)): 0 pg/mL
- INF-γ production ([2]; HLA-A2^+ prostate cancer patient #6 (A0207)): 68 pg/mL
- INF-γ production ([2]; HLA-A2^+ prostate cancer patient #7 (A0206)): 49 pg/mL
- INF-γ production ([2]; HLA-A2^+ prostate cancer patient #8 (A0206)): 29 pg/mL
- INF-γ production ([2]; HLA-A2^+ prostate cancer patient #9 (A0201)): 56 pg/mL
- INF-γ production ([2]; HLA-A2^+ prostate cancer patient #10 (A0201)): 0 pg/mL
- Total (patients with significant peptide-specific IFN-γ production / patients tested) ([2]; HLA-A2^+ prostate cancer patients, p < 0.05): 1/10
